Data as given in article PMC5220248 (Angewandte Chemie (International ed. in English), 2016).
Residues, ends and D or L forms follow the SMILES beside them.

Legend:
HIV Rev protein = HIV Rev protein (Human immunodeficiency virus type 1 group M subtype B, UniProt P04618); format: binding
[1] = human, serum

## C[C@@H]1NC(=O)[C@H](C)NC(=O)[C@@H]2CCCN2C(=O)[C@H](Cc2ccc(O)cc2)NC(=O)[C@H](CCCNC(=N)N)NC(=O)[C@H](Cc2ccc(O)cc2)NC(=O)[C@H](CO)NC1=O [cRBP, cyclo-YPAASYR] (cyclo(AASYRYP))
HIV Rev protein
  IC50: 28 ± 5 nM
[1]
  half-life: ~30 h
